This is an account of results in patent publication US20230374038A1, “MODULATORS OF CYSTIC FIBROSIS TRANSMEMBRANE CONDUCTANCE REGULATOR” (VERTEX PHARMACEUTICALS INCORPORATED, priority 2020, published 2023).

pEC50: −log10 of the molar value.

The target in this assay is CFTR (Homo sapiens, UniProt P13569). The experiment in a line: Membrane Potential Dye, Enteroid Assay B. The class given is cell-based. Conditions: for pEC50: read-out: Ent. B EC50. How it is done: Base medium (ADF+++) consisted of Advanced DMEM/Ham's F12, 2 mM Glutamax, 10 mM HEPES, 1 µg/mL penicillin/streptomycin.
Intestinal enteroid maintenance medium (IEMM) consisted of ADF+++, 1× B27 supplement, 1× N2 supplement, 1.25 mM N-acetyl cysteine, 10 mM Nicotinamide, 50 ng/mL hEGF, 10 nM Gastrin, 1 pg/mL hR-spondin-1, 100 ng/mL hNoggin, TGF-b type 1 inhibitor A-83-01, 100 μg/mL Primocin, […] P38 MAPK inhibitor SB202190.
Bath 1 Buffer consisted of 1 mM MgCl2, 160 mM NaCl, 4.5 mM KCl, 10 mM HEPES, 10 mM Glucose, 2 mM CaCl2).
Chloride Free Buffer consisted of 1 mM Magnesium Gluconate, 2 mM Calcium Gluconate, 4.5 mM Potassium Gluconate, 160 mM Sodium Gluconate, 10 mM HEPES, 10 mM Glucose.
Bath1 Dye Solution consisted of Bath 1 Buffer, 0.04% Pluronic F127, […] Methyl Oxonol, 30 μM CaCCinh-A01, 30 μM Chicago Sky Blue.
Chloride Free Dye Solution consisted of Chloride Free Buffer, 0.04% Pluronic F127, 20 μM Methyl Oxonol, 30 μM CaCCinh-A01, 30 μM Chicago Sky Blue.
Chloride Free Dye Stimulation Solution consisted of Chloride Free Dye Solution, 10 μM forskolin, 100 μM IBMX, and 300 nM Compound III.
Human intestinal epithelial enteroid cells were obtained from the Hubrecht Institute for Developmental Biology and Stem Cell Research, Utrecht, The Netherlands and expanded in T-Flasks as previously described (Dekkers J F, Wiegerinck C L, de Jonge H R, Bronsveld I, Janssens H M, de Winter-de Groot K M, Brandsma A M, de Jong N W M, Bijvelds M J C, Scholte B J, Nieuwenhuis E E S, van den Brink S, Clevers H, van der Ent C K, Middendorp S and M Beekman J M. A functional CFTR assay using primary cystic fibrosis intestinal organoids. Nat Med. 2013 July; 19(7):939-45.).
Cells were recovered in cell recovery solution, collected by centrifugation at 650 rpm for 5 min at 4° C., resuspended in TryPLE and incubated for 5 min at 37° C. Cells were then collected by centrifugation at 650 rpm for 5 min at 4° C. and resuspended in IEMM containing 10 μM ROCK inhibitor (RI). The cell suspension was passed through a 40 μm cell strainer and resuspended at 1×10^6 cells/mL in IEMM containing 10 μM RI. Cells were seeded at 5000 cells/well into multi-well plates and incubated for overnight at 37° C., 95% humidity and 5% CO2 prior to assay.
Enteroid cells were incubated with test compound in IEMM for 18-24 hours at 37° C., 95% humidity and 5% CO2. […] Briefly, cells were washed 5 times in Bath 1 Buffer. Bath 1 Dye Solution was added and the cells were incubated for 25 min at room temperature. Following dye incubation, cells were washed 3 times in Chloride Free Dye Solution. Chloride transport was initiated by addition of Chloride Free Dye Stimulation Solution and the fluorescence signal was read for 15 min. […] Chloride transport was then expressed as a percentage of the chloride transport following treatment with 1 μM (14S)-8-[3-(2-{Dispiro[2.0.2.1]heptan-7-yl}ethoxy)-1H-pyrazol-1-yl]-12,12-dimethyl-2λ^6-thia-3,9,11,18,23-pentaazatetracyclo[17.3.1.111,14.05,10]tetracosa-1(22),5,7,9,19(23),20-hexaene-2,2,4-trione, 3 μM (R)-1-(2,2-difluorobenzo[d][1,3]dioxol-5-yl)-N-(1-(2,3-dihydroxypropyl)-6-fluoro-2-(1-hydroxy-2-methylpropan-2-yl)-1H-indol-5-yl)cyclopropanecarboxamide and 300 nM acute N-[2,4-bis(1,1-dimethylethyl)-5-hydroxyphenyl]-1,4-dihydro-4-oxoquinoline-3-carboxamide triple combination control (% Activity).

Sequence of CFTR (P13569 with tags, fused parts or gaps DEL508-508): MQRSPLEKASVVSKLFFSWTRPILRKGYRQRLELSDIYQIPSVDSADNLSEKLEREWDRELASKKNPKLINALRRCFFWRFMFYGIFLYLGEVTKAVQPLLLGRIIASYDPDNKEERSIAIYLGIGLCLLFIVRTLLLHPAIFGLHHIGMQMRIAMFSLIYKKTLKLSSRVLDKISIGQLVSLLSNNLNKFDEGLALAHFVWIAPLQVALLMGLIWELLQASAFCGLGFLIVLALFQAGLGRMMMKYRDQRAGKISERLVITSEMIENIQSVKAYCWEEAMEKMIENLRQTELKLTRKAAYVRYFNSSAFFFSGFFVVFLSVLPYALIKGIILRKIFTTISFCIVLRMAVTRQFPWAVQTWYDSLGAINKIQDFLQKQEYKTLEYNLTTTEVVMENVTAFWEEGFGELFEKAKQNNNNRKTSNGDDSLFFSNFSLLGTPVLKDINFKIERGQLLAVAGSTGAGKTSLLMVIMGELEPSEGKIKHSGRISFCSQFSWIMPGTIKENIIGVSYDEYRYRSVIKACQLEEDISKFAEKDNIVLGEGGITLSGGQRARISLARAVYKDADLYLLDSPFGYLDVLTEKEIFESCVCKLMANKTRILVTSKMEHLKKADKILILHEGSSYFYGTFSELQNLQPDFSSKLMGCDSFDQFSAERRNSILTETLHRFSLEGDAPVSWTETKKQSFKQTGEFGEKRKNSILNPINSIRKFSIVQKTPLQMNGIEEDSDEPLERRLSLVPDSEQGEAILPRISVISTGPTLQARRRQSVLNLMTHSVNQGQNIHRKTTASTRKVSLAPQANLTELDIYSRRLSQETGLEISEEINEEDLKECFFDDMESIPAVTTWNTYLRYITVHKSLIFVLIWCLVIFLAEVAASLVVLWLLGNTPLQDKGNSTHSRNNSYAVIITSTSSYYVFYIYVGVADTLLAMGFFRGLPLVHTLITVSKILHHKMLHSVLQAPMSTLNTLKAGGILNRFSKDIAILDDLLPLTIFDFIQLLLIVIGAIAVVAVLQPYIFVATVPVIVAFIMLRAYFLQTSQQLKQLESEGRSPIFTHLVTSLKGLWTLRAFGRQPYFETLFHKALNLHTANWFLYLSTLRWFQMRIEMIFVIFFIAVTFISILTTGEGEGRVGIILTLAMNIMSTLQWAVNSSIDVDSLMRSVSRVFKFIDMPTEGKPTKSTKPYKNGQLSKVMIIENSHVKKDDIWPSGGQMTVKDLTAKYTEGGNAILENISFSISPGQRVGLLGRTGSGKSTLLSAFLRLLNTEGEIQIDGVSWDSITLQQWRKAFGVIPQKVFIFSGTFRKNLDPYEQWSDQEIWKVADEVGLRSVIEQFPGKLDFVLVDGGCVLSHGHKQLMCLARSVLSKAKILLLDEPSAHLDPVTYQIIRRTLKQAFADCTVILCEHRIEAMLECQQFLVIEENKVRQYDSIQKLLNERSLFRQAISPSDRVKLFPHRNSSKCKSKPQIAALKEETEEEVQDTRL

`COC1CC(N2C(=O)c3cccc(c3)S(=O)(=O)Nc3nc(c(C)c(-c4c(C)cccc4C)n3)OC[C@H]2CC2(C(F)(F)F)CC2)C1` (some centres unmarked) [Compound 99]: the “Ent. B Max Activity” value is reported as “+++ (+++ is >60%)” and the negative logarithm of the EC50 (pEC50) (in general, the EC50 on a negative log10 scale, so that one unit is a factor of ten) is > 6.00. On to `COC1CC(N2C(=O)c3cccc(c3)S(=O)(=O)Nc3nc(c(C)c(-c4c(C)cccc4C)n3)OC[C@H]2CC2(C(F)(F)F)CC2)C1` (some centres unmarked) [Compound 100], for which the “Ent. B Max Activity” value is “+++ (+++ is >60%)” and the negative-log EC50 (pEC50) was > 6.00. For the molecule `Cc1cccc(C)c1-c1nc2nc(c1C)OC[C@@H](CC(C)(C)C)N(C1CC3(CC3)C1)C(=O)c1cccc(c1)S(=O)(=O)N2` [Compound 101], the “Ent. B Max Activity” value is “+++ (+++ is >60%)” and the pEC50 was > 6.00. On the same counts, the results for `Cc1cccc(C)c1-c1nc2nc(c1C)OC[C@@H](CC(C)(C)C)NC(=O)c1cccc(c1)S(=O)(=O)N2` [Compound 102] are “+++ (+++ is >60%)” and > 6.00. In the case of `Cc1cccc(C)c1-c1nc2nc(c1C)OC[C@@H](CC1(C(F)(F)F)CC1)NC(=O)c1cccc(c1)S(=O)(=O)N2` [Compound 103], the “Ent. B Max Activity” value is “+++ (+++ is >60%)” and the pEC50 was > 6.00. As to `Cc1cccc(C)c1-c1nc2nc(c1C)O[C@@H]1CN(C3CC4(CCCCC4)C3)C[C@H]1NC(=O)c1cccc(c1)S(=O)(=O)N2` [Compound 104, (3R,7R)-19-(2,6-dimethylphenyl)-20-methyl-5-{spiro[3.5]nonan-2-yl}-2-oxa-15λ^6-thia-5,8,16,18,21-pentaazatetracyclo[15.3.1.110,14.03,7]docosa-1(21),10,12,14(22),17,19-hexaene-9,15,15-trione], the “Ent. B Max Activity” value is on record as “+++ (+++ is >60%)” and the negative-log EC50 (pEC50) was > 6.00.

For the molecule `Cc1cccc(C)c1-c1nc2nc(c1C)OC[C@@H](CC(C)(C)O)NC(=O)c1cccc(c1)S(=O)(=O)N2` [Compound 105, (11R)-6-(2,6-Dimethylphenyl)-11-(2-hydroxy-2-methyl-propyl)-7-methyl-2,2-dioxo-9-oxa-2λ^6-thia-3,5,12,19-tetrazatricyclo[12.3.1.14,8]nonadeca-1(18),4(19),5,7,14,16-hexaen-13-one], the “Ent. B Max Activity” value is “+++ (+++ is >60%)” and the pEC50 is 4.52 to 5.52. The corresponding values for `Cc1cccc(C)c1-c1nc2nc(c1C)OC[C@@H](CCC(C)(C)O)NC(=O)c1cccc(c1)S(=O)(=O)N2` [Compound 107, (11R)-6-(2,6-Dimethylphenyl)-11-(3-hydroxy-3-methyl-butyl)-7-methyl-2,2-dioxo-9-oxa-2λ^6-thia-3,5,12,19-tetrazatricyclo[12.3.1.14,8]nonadeca-1(18),4(19),5,7,14,16-hexaen-13-one] are “+ (+ is <30%)” and 4.52 to 5.52.

Regarding `Cc1cccc(C)c1-c1nc2nc(c1C)OC[C@@H](CC(C)(C)O)N(C1CC3(CC3)C1)C(=O)c1cccc(c1)S(=O)(=O)N2` [Compound 108, (11R)-6-(2,6-Dimethylphenyl)-11-(2-hydroxy-2-methyl-propyl)-7-methyl-2,2-dioxo-12-spiro[2.3]hexan-5-yl-9-oxa-2λ^6-thia-3,5,12,19-tetrazatricyclo[12.3.1.14,8]nonadeca-1(18),4(19),5,7,14,16-hexaen-13-one], the “Ent. B Max Activity” value is listed as “+++ (+++ is >60%)” and the pEC50 was 5.52 to 6.00. The corresponding values for `Cc1cccc(C)c1-c1nc2nc(c1C)OC[C@@H](CCC(C)(C)O)N(CCCC(C)(C)O)C(=O)c1cccc(c1)S(=O)(=O)N2` [Compound 109] are “++ (++ is 30-60%)” and 4.52 to 5.52. Regarding `Cc1cccc(C)c1-c1nc2nc(c1C)OC[C@@H](CC(C)(C)O)N(CCCC(C)(C)O)C(=O)c1cccc(c1)S(=O)(=O)N2` [Compound 110], the “Ent. B Max Activity” value is “+ (+ is <30%)”. As to `Cc1cccc(C)c1-c1nc2nc(c1C)OC[C@@H](CC(C)(C)O)N(Cc1ncccn1)C(=O)c1cccc(c1)S(=O)(=O)N2` [Compound 111], the “Ent. B Max Activity” value was “+++ (+++ is >60%)” and the negative logarithm of the EC50 (pEC50) is 5.52 to 6.00.
